In experiment [1] the test system is dl703. Kind of experiment: E1A-independent viral DNA replication of dl703 (fiber qPCR). In kind it is cell-based, Mastadenovirus, Type C, Serotype 5. Particulars: UMUC cells, 10 μM Lee, 50 MOI dl703, 48 hours post infection. As for the experimental part:
To investigate the differences in replication of dl703 (Mantwill et al. 2013, Journal of Translational Medicine, 11, 216) under different treatment conditions, DNA-replication analysis was performed. 100,000 UMUC cells were seeded in 6-well plates and grown in DMEM medium containing 10% FCS in 5% CO2 conditions at 37° C. 24 hours post seeding cells were treated for 24 hours with 10 μM Lee (Ribociclib), 1 μM CI-1040, 10 μM Nutlin-3a and 10 μM Roscovertine and again after infection adding an appropriate amount of inhibitors to the medium. Infection with 50 MOI dl703 (Mastadenovirus, Type C, Serotype 5 with a 3.2 kb sized deletion in E1 region) took place 24 hours post treatment. After 4 and 48 hours post infection DNA were isolated and qPCR was performed using specific primers for the viral fiber gene. Fiber fwd. 5′-[…]-3′ (SEQ ID NO: 17); Fiber rev. 5′-[…]-3′ (SEQ ID NO: 18).
For orientation: Quantitative PCR measures a nucleic acid by following its amplification.

Experiment [2] concerns Rb, phRB and E2F1. Kind of experiment: Western blot of UMUC cells treated with cell cycle inhibitors. Type of experiment: cell-based, human. Conditions: 24 hours post-treatment, LEE-011 at 10 μM, MI-1040 at 1 μM. Here is the method: Western Blot analysis of UMUC cells treated with indicated concentrations of CI-1040, Roscovitine, Nutlin-3a and LEE011 (Ribociclib). 1×10^6 cells were seeded in 10 cm dishes. 24 hours post-treatment proteins were isolated using 1% SDS buffer, to achieve the disruption of the nuclear membrane. All samples were drawn up several times into a syringe to disrupt the DNA and subsequently centrifuged at 30000 rpm at 4° C. for 30 minutes. The supernatant was transferred to a new reaction tube and directly used for further steps or stored at −80° C. To separate the proteins a sodium dodecyl sulfate polyacrylamide gel electrophoresis was performed. By means of electrophoresis for approximately two hours at 100V at 4° C., 40 μg of total proteins were loaded and probed against specific indicated antibodies.
For orientation: In western blotting, separated proteins are transferred to a membrane and probed.

Experiment [3] deals with UMUC3 cells. Kind of experiment: Cell cycle analysis (flow cytometry) of UMUC3 cells. Type of experiment: cell-based, human. Conditions: UMUC3, 48 hours; Roscovitine 10 μM, CI-1040 1 μM, Nutlin-3a 10 μM, LEE011 10 μM; 10 MOI dl703. Here is the method: FIG. 10 is a bar diagram showing cell cycle distribution in UMUC3 cells, measured 48 hours post treatment, whereby the concentrations of the […] inhibitors was as follows: Roscovitine: 10 μM, CI-1040: 1 μM, Nutlin-3a: 10 μM, and LEE011: 10 μM.
For cell cycle analysis cells were seeded in 6 well plates (2.5×10E4 c/well). 8 hours before infection with dl703, cells were treated with indicated concentration of cell cycle inhibitors. After infection with 10 MOI dl703 cells were again treated for 48 hours. Untreated cells and dl703 infected cells only, served as control. 48h post infection cells were harvest by trypsinization and fixed with 80% ethanol while vortexing. To investigate the cell cycle status, fixed cells were centrifuged 5 min at RT and 300 g and ethanol was aspirated. Cells were resuspended and washed with 1% BSA-PBS (Bovine Serum Albumin) and again centrifuged. Cells were stained with EDU and cell cycle analysis were performed using the Click-iT™ Plus EdU Flow Cytometry Assay Kits, Catalog nos. C10632 from Thermo Fischer. In addition, after 3× times washing with 1% BSA/PBS cells were stained with PI (Propidium Iodine, 50 μg/ml). Measurement was directly performed after staining with a FACScalibur Flow Cytometry System. Data was analyzed with FlowJo software.
(In general: A flow cytometer gives signals particle by particle.)

Experiment [4] relates to U87 cells, LN229 cells or T98G cells. Kind of experiment: SRB cell survival in glioblastoma cells, XVir-N-31, JQ1 and LEE011. Type of experiment: cell-based. Conditions: all three glioblastoma cell lines. As for the experimental part:
2×10^4 cells (U87 cells, LN229 cells or T98G cells) were seeded in 12 well plates in DMEM medium and inhibitor treated at the next day. 48 hours post seeding the cells were infected with XVir-N-31. After 4 days the cells were fixated using 10% TCA. The plates were stained using a 0.1% SRB solution. The surplus was removed and the plates were washed with 1% acetic acid. After removing the acetic acid, the plates were air dried overnight. The SRB was solved in 1 ml of a 10 mM Tris Base solution and a 1:10 dilution was measured using a photometer at 560 nm.

For experiment [5], the system named is LN229 cells. As to the kind of experiment: Western blot of XVir-N-31 infected LN229 cells, LEE011 and JQ1. In kind it is cell-based. As for the experimental part: 2.5×10^5 LN229 cells were seeded in 10 cm plates in DMEM medium. The following day the cells were treated with 500 nM LEE011 and 200 nM JQ1 or a combination of both. At the next morning the cells were infected with XVir-N-31 at 20 MOI. One hour after infection DMEM Medium containing the inhibitors was added on the cells. After each time point (24, 48, 72 hours) the cells were put on ice, washed twice with ice-cold PBS and 300 μl of SDS Protein Lysis Buffer was added. The cells were transferred to reaction tubes and the DNA sheared with a syringe and a needle and the supernatant transferred for further use after centrifugation. The protein concentration was measured with a BCA assay and samples with 4× Lämmli:DTT 6:1 and a concertation of 20 μg were produced and transferred to a 10% SDS gel. The gel electrophoresis started at 90V and was increased to 150V after the ladder started to separate. The proteins on the gel were blotted to a membrane for 2 hours at 100V and blocked in 5% milk in TBS-T for 1 hour at RT. After washing in TBS-T, the first antibody was added according to the manufacturer's information over night at 4° C. The used antibodies were directed to GAPDH, E1A, DBP, E2F1, Rb, pRb for all time points, and caspase 3 and the full length and cleaved version of PARP additionally for the 72 hours samples. The next day, the washing was repeated and the secondary antibody added for 1 hour at RT. Following the washing, ECL was used to image the chemiluminescence by the ChemiDoc™ MP Imaging System.

[6] abbreviates: LN229, with XVir-N-31, 48 hours post infection.
Setting [7] is: LN229, with XVir-N-31, 72 hours post infection.

Molecules are shown by their SMILES.

Regarding `CN(C)C(=O)c1cc2cnc(Nc3ccc(N4CCNCC4)cn3)nc2n1C1CCCC1` [LEE011], the “increase of viral DNA replication of dl703” value in experiment [1] is reported as about 100 fold. Further, in experiment [2], the “Rb, phRB and E2F1 expression” value is reported as “induced inhibition”. For the same molecule, in experiment [3], the cell cycle distribution result was “clear G1-arrest”. Further, the “cell killing on addition of LEE011 to JQ1 and XVir-N-31” value in experiment [4] is on record as “increased even further”. Moreover, the “viral proteins E1A and DBP” value in experiment [5] (LN229, XVir-N-31 MOI 20, 500 nM LEE011 or/and 200 nM JQ-1, 24 hours post infection) is reported as “increased”; in experiment [5] (LN229, XVir-N-31 MOI 20, 500 nM LEE011 or/and 200 nM JQ-1, 48 hours post infection), “increased”; in experiment [5] (LN229, XVir-N-31 MOI 20, 500 nM LEE011 or/and 200 nM JQ-1, 72 hours post infection), “increased”. Also, the “cellular proteins Rb and pRb” value in experiment [5] (LN229, with XVir-N-31, 24 hours post infection) was “remained inhibited”; in experiment [5] (setting [6]) it was “remained inhibited”. For the same molecule, the E2F-1 result in experiment [5] (setting [6]) is given as “stabilized”. Besides, the E2F1 entry in experiment [5] (setting [7]) is “enhanced”. For the same molecule, the “cellular protein Rb” value in experiment [5] (setting [7]) is “decreased”. Moreover, in experiment [5] (XVir-N-31 infected LN229 cells, 72 hours post infection), the “presence of cleaved PARP” value is given as “increased”.

Source of the values: patent publication US20220354911A1, “TREATMENT OF TUMORS BY A COMBINATION OF AN ONCOLYTIC ADENOVIRUS, A CDK4/6 INHIBITOR AND A FURTHER THERAPEUTICALLY ACTIVE AGENT” (KLINIKUM RECHTS DER ISAR DER TECHNISCHEN UNIVERSITÄT MÜNCHEN, priority 2019, published 2022).
